According to patent US20240309018A1, “THIAZOLE-LACTAM-SPIROHETEROCYCLIC COMPOUNDS AND APPLICATIONS THEREOF” (D3 BIO (WUXI) CO., LTD, priority 2021, published 2024):
pIC50: −log10 of the molar value.

Key:
[1] = In vivo PK study in SD rats; design: species or system rat; conditions: male SD rats
Procedure: Male SD rats were used as assay animals. After a single administration, the plasma concentration of the compound was measured and the pharmacokinetic behavior was evaluated.
Six healthy adult male SD rats were selected, wherein 3 rats were in an intravenous injection group and 3 rats were in an oral group. The vehicle in the intravenous injection group was 5% DMSO+95% (20% HP-β-CD). The compound to be assayed was mixed with an appropriate amount of vehicle for intravenous injection, vortexed and sonicated to prepare a clear solution of 0.2 mg/mL. The clear solution was filtered by a microporous membrane, and then ready for use. The vehicle in the oral group was 5% DMSO+95% (20% HP-β-CD). The compound to be assayed was mixed with the vehicle, vortexed and sonicated to prepare a solution of 1 mg/mL. SD rats were administered 1 mg/kg intravenously or 10 mg/kg orally, and then whole blood was collected for a certain period. Plasma was prepared. The drug concentration was analyzed by LC-MS/MS method, and the pharmacokinetic parameters were calculated by Phoenix WinNonlin software (Pharsight, USA).

hERG potassium channel = hERG potassium channel (Homo sapiens (Human), UniProt Q12809); test: hERG assay (automated patch-clamp, CHO-hERG cells); type: cell-based; conditions: Qpatch, highest assayed concentration 40 μM
Procedure: A fully automated patch-clamp method was used to assay the effect of the compound on hERG potassium channel (human Ether-a-go-go Related Gene potassium channel) current.
CHO-hERG cells were cultured in a 175 cm^2 culture flask. When cells grew to a density of 60˜80%, the culture medium was removed. Cells were washed once with 7 mL of PBS (Phosphate Buffered Saline), and then 3 mL of Detachin was added for digestion. After the digestion was completed, 7 mL of culture medium was added for neutralization, and then the mixture was centrifuged. The supernatant was aspirated, and then 5 mL of culture medium was added to resuspend the cells and ensure that the cell density was 2˜5×10^6/mL.
Extracellular solution formulation (mM): 140 NaCl, 5 KCl, 1 CaCl2), 1.25 MgCl2, 10 HEPES and 10 Glucose: the formulation was adjusted to pH of 7.4 with NaOH. […]
The single-cell high-impedance sealing and whole-cell pattern formation processes were all automatically performed by a Qpatch instrument. […] This voltage stimulation was applied every 15 seconds, and recorded for 2 minutes. The extracellular solution was then given, and recorded for 5 minutes. […]
Assay data were analyzed by GraphPad Prism 5.0 software. […]
The inhibitory effect of Cisapride with multiple concentrations on the hERG channel was measured as a positive control.

canine plasma albumin = test: Plasma protein binding (ultracentrifugation), canine; type: in vitro ADME; note: tested at 0.2 µM
Procedure: The binding degree of the assay compound to human/mouse/rat/canine/monkey plasma albumin was studied.
• 1) Matrix preparation: on the day of the assay, plasma was thawed in cold water and centrifuged at 3220 rpm for 5 min to remove all clots. The pH of the resulting plasma was measured and adjusted to 7.4±0.1 using 1% phosphoric acid or IN sodium hydroxide as needed. • 2) Dilution procedure for the assay compound: the assay compound was dissolved in dimethyl sulfoxide (DMSO) to prepare stock solutions with concentrations of 10 mM and 2 mM, respectively. A 40 μM working solution was prepared by diluting 2 μL of stock solution (2 mM) with 98 μL of DMSO. A 400 μM working solution of the control compound was prepared by diluting 10 μL of stock solution with 240 μL of DMSO. The working solution of the compound (5 μL) was mixed well with a blank matrix (995 μL) at a ratio of 1:200 to prepare a loading matrix.
• a) An equal volume of 30 μL of loading matrix (n=2) was transferred to a sample collection plate to prepare a time 0 (TO) sample for residue determination. The sample was immediately matched with the corresponding blank buffer to a final volume of 60 μL, and the volume ratio of plasma to buffer in each well was 1:1. […] The mixture was centrifuged at 4000 rpm for 20 min and 100 μL of supernatant from each sample was analyzed by LC-MS/MS.

hERG potassium channel, sequence (Q12809 whole entry): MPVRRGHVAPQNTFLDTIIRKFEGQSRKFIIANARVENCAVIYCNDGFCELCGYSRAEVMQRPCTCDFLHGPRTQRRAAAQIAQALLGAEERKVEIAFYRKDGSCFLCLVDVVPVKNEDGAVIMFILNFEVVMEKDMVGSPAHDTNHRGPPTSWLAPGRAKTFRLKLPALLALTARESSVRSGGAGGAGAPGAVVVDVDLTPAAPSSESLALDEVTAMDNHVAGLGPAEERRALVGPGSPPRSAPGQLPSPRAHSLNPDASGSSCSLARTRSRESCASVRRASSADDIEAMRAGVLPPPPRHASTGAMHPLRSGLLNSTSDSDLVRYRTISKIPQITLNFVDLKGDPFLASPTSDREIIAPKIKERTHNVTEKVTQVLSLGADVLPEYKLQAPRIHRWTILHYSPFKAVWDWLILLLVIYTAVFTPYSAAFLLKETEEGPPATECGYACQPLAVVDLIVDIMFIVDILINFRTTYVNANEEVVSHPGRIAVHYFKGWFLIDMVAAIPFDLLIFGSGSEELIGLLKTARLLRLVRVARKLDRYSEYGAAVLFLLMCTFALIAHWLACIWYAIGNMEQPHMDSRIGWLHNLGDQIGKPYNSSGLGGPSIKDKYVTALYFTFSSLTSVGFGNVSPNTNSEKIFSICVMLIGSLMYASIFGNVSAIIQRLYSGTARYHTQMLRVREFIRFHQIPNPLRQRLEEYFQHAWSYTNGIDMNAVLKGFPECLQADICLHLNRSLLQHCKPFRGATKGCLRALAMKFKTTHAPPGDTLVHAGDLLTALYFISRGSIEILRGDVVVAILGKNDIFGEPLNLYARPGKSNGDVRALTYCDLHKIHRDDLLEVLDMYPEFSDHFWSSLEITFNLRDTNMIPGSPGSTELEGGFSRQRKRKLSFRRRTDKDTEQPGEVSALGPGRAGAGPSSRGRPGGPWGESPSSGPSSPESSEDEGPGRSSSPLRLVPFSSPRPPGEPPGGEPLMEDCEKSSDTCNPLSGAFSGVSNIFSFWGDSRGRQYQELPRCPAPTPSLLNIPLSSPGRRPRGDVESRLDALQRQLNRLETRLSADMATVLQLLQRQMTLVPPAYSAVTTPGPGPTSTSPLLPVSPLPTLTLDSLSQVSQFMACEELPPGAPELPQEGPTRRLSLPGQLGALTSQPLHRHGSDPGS

SMILES: Cc1cccc(CN2C(=O)c3nc(-c4nc(Nc5ccnn5C)ncc4C)sc3C23COC3)n1 [WX001]
- Oral DNAUC ([1]; 10 mg/kg orally, AUCPO/Dose): 1445.79 nM · h/mpk
- clearance ([1]; rat, plasma, intravenous, 1 mg/kg intravenously or 10 mg/kg orally): 13.4 mL/min/kg
- Vd ([1]; rat, plasma, intravenous, 1 mg/kg intravenously or 10 mg/kg orally, read-out: Vdss): 1.08 L/kg
- half-life ([1]; rat, plasma, 1 mg/kg intravenously or 10 mg/kg orally): 3.77 h
- bioavailability ([1]; rat, plasma, 1 mg/kg intravenously, 10 mg/kg orally, oral bioavailability): 49%
- Cmax ([1]; rat, single dose, 1 mg/kg intravenously or 10 mg/kg orally, plasma): 2500 nM
- pIC50 (hERG potassium channel): < 4.40
- Plasma protein binding rate (unbound %) (canine plasma albumin): 14.3%
